Assay [1] has as its target T1, WT human TP receptor (Homo sapiens, UniProt P21731).
T1 construct: expressed in transfected cells; host or cells: HEK293
T1 sequence (P21731 1-343): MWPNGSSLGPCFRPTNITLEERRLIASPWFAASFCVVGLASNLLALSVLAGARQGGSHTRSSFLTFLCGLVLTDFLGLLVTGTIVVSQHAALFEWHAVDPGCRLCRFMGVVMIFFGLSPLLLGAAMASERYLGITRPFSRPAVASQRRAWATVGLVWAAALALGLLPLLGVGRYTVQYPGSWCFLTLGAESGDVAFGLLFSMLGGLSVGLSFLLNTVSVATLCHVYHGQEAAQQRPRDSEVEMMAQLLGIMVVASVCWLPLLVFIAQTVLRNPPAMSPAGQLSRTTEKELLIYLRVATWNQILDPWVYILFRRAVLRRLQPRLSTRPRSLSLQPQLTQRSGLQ
Kind of assay: [3H]SQ29,548 radioligand binding (mixed-type and heterologous competition), WT receptor. The following applies: HEK293 cells, competition vs 1 nM [3H]SQ29,548, 25°C 30 min, value ±%CV. The protocol:
(§1) Receptor expression and functional activity were monitored 48 hours after transfection. […] Heterologous competition studies involved concentrations of the indicated unlabeled ligands extending from 0.1 nM to 30 µM. After 30 min incubation at 25 °C, the reaction was stopped by aspiration of the medium, cells were washed with ice-cold PBS containing 0.2% (w/v) BSA and lysed in 0.5 N NaOH. Radioactivity was measured by liquid scintillation counting. Binding data were analyzed as described in Data and Statistical Analysis. Quantification of the total labeled inositol phosphates (IP) accumulation was performed using a conventional gravity flow column chromatography, as described previously, [19]. Briefly, the day before the assay, cells were labeled with 0,5 µCi of [myo-2-^3H]inositol (17 Ci/mmol) for 18–20 hours in serum-free, inositol-free DMEM containing 20 mM HEPES buffer, pH 7.4, and 0.5% (w/v) Albumax I. The day of the assay, media was replaced with serum-free, inositol-free DMEM containing 25 mM LiCl and cells stimulated for 30 min with the indicated agonists. After removal of the medium, cells were lysed with 10 mM formic acid and lysates were applied onto an anion exchange AG 1X-8 column, formate form, 200–400 mesh. The total IP fraction was then eluted with 2 M ammonium formate/formic acid buffer at pH 5 and radioactivity determined by liquid scintillation counting. Rescue experiments were performed essentially as above, except for a 18 hours incubation step with 1 µΜof […] followed by its removal by washing three times with ice-cold PBS containing 1 mM MgCl2 and 0.1 mM CaCl2 before starting the experiment.
(§2) All average results are presented as mean±S.E. When indicated, ANOVA followed by post-hoc test for multiple comparisons was performed. Data from radioligand binding were evaluated by a nonlinear, least-squares curve-fitting procedure using GraphPad Prism version 4, implemented with the n-ligand m-binding site model, as described in the LIGAND computer program. Concentration-response curves were evaluated using Prism 4, which use the four parameters logistic model as described in the ALLFIT program. Parameter errors are all expressed in percentage coefficient of variation (%CV) and calculated by simultaneous analysis of at least two different independent experiments performed in duplicate or triplicate. Parameter comparison has been performed on the base of the F test for extra sum of square principle. All curves shown are computer generated.
Thus, transfection conditions were adjusted to secure equivalent levels of receptor expression for WT and mutants as previously described, [17], [19]. […] All the experiments were conducted within this range of receptor expression, if not specified differently.

Assay [2] concerns the target T2, E129V mutant human TP receptor (Homo sapiens, UniProt P21731, E129V).
T2 construct: expressed in transfected cells; host or cells: HEK293
T2 sequence (P21731 1-343 E129V): T1 sequence (P21731 1-343) with E129V
Kind of assay: Total inositol phosphate (IP) accumulation, E129V mutant. It counts as cell-based. The following applies: HEK293 cells. As to the method:
as §1, §2

Assay [3] concerns the target T1, WT human TP receptor. Nature of the assay: BRET2 measurement of Gq protein activation, WT receptor. Format: cell-based. The following applies: HEK293 cells, value ±%CV.
Source text: HEK 293 cells were co-transfected with vectors expressing the GFP^10-Gγ2, Gβ1, Gαq-Rluc8 and WT or E129V mutant of TP receptor to investigate direct G protein activation with an intramolecular bioluminescent resonance energy transfer (BRET^2) strategy. To avoid possible variations in the BRET signaling resulting from fluctuation in the relative expression levels of the energy donor and acceptor, we designed transfection conditions to maintain constant GFP^10 and Rluc8 expression and their ratios in each experimental set. Total fluorescence and luminescence were directly determined in an aliquot of the transfected cells using an Infinite F500 microplate reader (Tecan, Milan, Italy) as previously described. […] 48 hours after transfection, cells were washed once with PBS, detached, and resuspended in PBS+0.1% (w/v) glucose at room temperature. Cells were then distributed (80 µg of proteins per well) into a 96-well microplate (Wallac, Perkin Elmer, Monza, Italy) and incubated in the presence or absence of increasing concentrations of ligands for 2 min before the addition of the luciferase substrate Coelenterazine 400a (5 µM; Biotium, Hayward, CA). BRET signal between Rluc8 and GFP^10 was measured immediately after the addition of the Rluc substrate in the microplate reader. The BRET signal was calculated as the ratio of the light emitted by GFP^10 (510–540 nm) over the light emitted by Rluc8 (370–450 nm). The changes in BRET induced by the ligands were expressed as Òagonist-induced BRETÓ, obtained by subtracting the BRET signal detected in the presence of PBS by the BRET signal detected in the presence of the specific ligand.
as §2
This recorded real time conformational changes between the α and the βγ subunits within the Gq protein, where a decrease of the BRET signal provoked by agonist-induced receptor activation is indicative of a conformational reorganization leading the Gα-Gβγ interface to open, reflects the initial event of Gq protein activation, [23] (Figure 6A).

Assay [4] deals with T2, E129V mutant human TP receptor. Kind of assay: BRET2 measurement of Gq protein activation, E129V mutant. Format: cell-based. The note with it: HEK293 cells. The protocol:
as §2
(BRET reads energy transfer from a luciferase to a nearby fluorophore.)

Where [5] appears, read: E129V, 30 min stimulation, value ±%CV.

Residue numbers refer to the chain shown, from its start.

Turning to `CCCCC[C@H](O)/C=C/[C@@H]1[C@@H](C/C=C\CCCC(=O)O)[C@H]2CO[C@@H]1C2` (relative stereo) [U46619, [1R-[1α,4α,5β(Z),6α(1E,3S*)]]-7-[6-(3-hydroxy-1-octenyl)-2-oxabicyclo[2.2.1]hept-5-yl]-5-heptenoic acid], affinity at WT human TP receptor [1] was put at a Ki of 170 ± 13 nM. Moreover, the EC50 (in general, the concentration that produces a half-maximal response) in assay [2] (setting [5]) was determined as 4.47 nM; on WT human TP receptor [3] (Gαq-Rluc8/GFP10-Gγ2/Gβ1, 2 min ligand) it was 345 ± 14 nM; in assay [4] (E129V, Gαq-Rluc8/GFP10-Gγ2/Gβ1, 2 min ligand, value ±%CV), 4.53 nM. Moreover, the “Emax, total IP” value in assay [2] (setting [5]) was determined as 18115±5 dpm/wel. Also, in assay [2] (WT vs E129V), the “Activity ratio (EC50 WT over EC50 E129V), total IP” value is 22.1. Further, on WT human TP receptor [3], the “Emax, agonist-induced BRET” value was −0.07±3. Also, in assay [4] (WT vs E129V), the “Activity ratio (EC50 WT over EC50 E129V), BRET” value is listed as 76.

Source of the values: paper PMC3610872, “Full and Partial Agonists of Thromboxane Prostanoid Receptor Unveil Fine Tuning of Receptor Superactive Conformation and G Protein Activation” (PLoS ONE, 2013).
